Key:
SR = conditions: 10 μM
KM12 = conditions: KM12, 10 μM
TK-10 = conditions: TK-10, 10 μM
SK-MEL-2 = conditions: SK-MEL-2, 10 μM
OVCAR-5 = conditions: OVCAR-5, 10 μM
RXF 393 = conditions: RXF 393, 10 μM
BT-549 = conditions: BT-549, 10 μM
U251 = conditions: U251, 10 μM
UACC-257 = conditions: UACC-257, 10 μM
NCI-H322M = assay: NCI SRB screening; conditions: 10 μM
HOP-92 = conditions: HOP-92, 10 μM
SNB-19 = conditions: SNB-19, 10 μM
MCF7 = conditions: MCF7, 10 μM
DU-145 = conditions: DU-145, 10 μM
SF-295 = conditions: SF-295, 10 μM
NCI-H226 = conditions: NCI-H226, 10 μM
HCC-2998 = assay: NCI SRB screening; format: cell-based, human; conditions: HCC-2998, 10 μM
SK-MEL-5 = conditions: SK-MEL-5, 10 μM
OVCAR-8 = conditions: OVCAR-8, 10 μM
SF-268 = conditions: SF-268, 10 μM
SF-539 = conditions: SF-539, 10 μM
SK-OV-3 = conditions: SK-OV-3, 10 μM
UACC-62 = conditions: UACC-62, 10 μM
MDA-MB-231/ATCC = conditions: MDA-MB-231, 10 μM
SNB-75 = conditions: SNB-75, 10 μM
OVCAR-3 = conditions: OVCAR-3, 10 μM
A498 = conditions: A498, 10 μM
IGROV1 = conditions: IGROV1, 10 μM
ACHN = conditions: 10 μM
MDA-MB-468 = conditions: MDA-MB-468, 10 μM
HL-60(TB) = conditions: HL-60(TB), 10 μM
MALME-3M = conditions: 10 μM
HS 578T = conditions: 10 μM
RPMI-8226 = conditions: RPMI-8226, 10 μM
A-549 = assay: SRB anti-proliferative assay; format: cell-based; conditions: Homo sapiens, A549; A-549, SRB, mean ± SE of 3
Protocol: Staurosporine, a clinically used antitumor drug, was co-assayed as a reference agent for the experiment.
Examination of the cytotoxic activity for the target conjugates was carried out in accordance with the SRB colorimetric assay protocol, as described previously.
In vitro anti-proliferative activity assay
Cells at a concentration of 0.50 x
Sulfo-Rhodamine-B stain (SRB) assay.
cell to the wall of the plate.
wells were prepared for each individual dose).
Unbound dye was removed by four

LOX IMVI = assay: NCI SRB screening; format: cell-based, human; conditions: 10 μM
CCRF-CEM = conditions: 10 μM
UO-31 = conditions: UO-31, 10 μM
HCT-15 = conditions: HCT-15, 10 μM
T-47D = conditions: 10 μM
MDA-MB-435 = assay: NCI SRB screening; format: cell-based; conditions: MDA-MB-435, 10 μM
M14 = assay: NCI SRB screening; format: cell-based; conditions: M14, 10 μM
A549/ATCC = conditions: 10 μM
NCI-H522 = conditions: NCI-H522, 10 μM
PC-3 = assay: NCI SRB screening; format: cell-based, human; conditions: PC-3, 10 μM

CCCn1cc(/C=N/N=C2\C(=O)Nc3ccc(OC(F)(F)F)cc32)c2ccccc21 [Compound 8b]
GI % (SR): – (Only GI % higher than 10% are shown) | GI % (KM12): – (Only GI % higher than 10% are shown) | GI % (TK-10): – (Only GI % higher than 10% are shown) | GI % (SK-MEL-2): – (Only GI % higher than 10% are shown) | GI % (OVCAR-5): – (Only GI % higher than 10% are shown) | GI % (RXF 393): – (Only GI % higher than 10% are shown) | GI % (BT-549): – (Only GI % higher than 10% are shown) | GI % (U251): 13.32% | GI % (UACC-257): – (Only GI % higher than 10% are shown) | GI % (NCI-H322M): – (Only GI % higher than 10% are shown) | GI % (HOP-92): – (Only GI % higher than 10% are shown) | GI % (SNB-19): – (Only GI % higher than 10% are shown) | GI % (MCF7): 29% | GI % (DU-145): 13% | GI % (SF-295): – (Only GI % higher than 10% are shown) | GI % (NCI-H226): – (Only GI % higher than 10% are shown) | GI % (HCC-2998): – (Only GI % higher than 10% are shown) | GI % (SK-MEL-5): – (Only GI % higher than 10% are shown) | GI % (OVCAR-8): 15% | GI % (SF-268): – (Only GI % higher than 10% are shown) | GI % (SF-539): – (Only GI % higher than 10% are shown) | GI % (SK-OV-3): – (Only GI % higher than 10% are shown) | GI % (UACC-62): 11% | GI % (MDA-MB-231/ATCC): – (Only GI % higher than 10% are shown) | GI % (SNB-75): – (Only GI % higher than 10% are shown) | GI % (OVCAR-3): – (Only GI % higher than 10% are shown) | GI % (A498): – (Only GI % higher than 10% are shown) | GI % (IGROV1): – (Only GI % higher than 10% are shown) | GI % (ACHN): 15% | GI % (MDA-MB-468): 11% | GI % (HL-60(TB)): 12% | GI % (MALME-3M): – (Only GI % higher than 10% are shown) | GI % (HS 578T): – (Only GI % higher than 10% are shown) | GI % (RPMI-8226): 30% | IC50 (A-549): 9.2 ± 0.78 µM | GI % (LOX IMVI): – (Only GI % higher than 10% are shown) | GI % (CCRF-CEM): 52% | GI % (UO-31): 19% | GI % (HCT-15): 23% | GI % (T-47D): 35% | GI % (MDA-MB-435): – (Only GI % higher than 10% are shown) | GI % (M14): – (Only GI % higher than 10% are shown) | GI % (A549/ATCC): 28% | GI % (NCI-H522): 19% | GI % (PC-3): 32%

CCCn1cc(C=NN=C2C(=O)Nc3ccc([N+](=O)[O-])cc32)c2ccccc21 [Compound 8c]
GI % (SR): 19% | GI % (KM12): 11% | GI % (TK-10): – (Only GI % higher than 10% are shown) | GI % (SK-MEL-2): – (Only GI % higher than 10% are shown) | GI % (OVCAR-5): – (Only GI % higher than 10% are shown) | GI % (RXF 393): – (Only GI % higher than 10% are shown) | GI % (BT-549): – (Only GI % higher than 10% are shown) | GI % (U251): 28% | GI % (UACC-257): – (Only GI % higher than 10% are shown) | GI % (NCI-H322M): – (Only GI % higher than 10% are shown) | GI % (HOP-92): 11% | GI % (SNB-19): 22% | GI % (MCF7): 15% | GI % (DU-145): – (Only GI % higher than 10% are shown) | GI % (SF-295): – (Only GI % higher than 10% are shown) | GI % (NCI-H226): – (Only GI % higher than 10% are shown) | GI % (HCC-2998): – (Only GI % higher than 10% are shown) | GI % (SK-MEL-5): – (Only GI % higher than 10% are shown) | GI % (OVCAR-8): 29% | GI % (SF-268): – (Only GI % higher than 10% are shown) | GI % (SF-539): 10% | GI % (SK-OV-3): – (Only GI % higher than 10% are shown) | GI % (UACC-62): – (Only GI % higher than 10% are shown) | GI % (MDA-MB-231/ATCC): – (Only GI % higher than 10% are shown) | GI % (SNB-75): – (Only GI % higher than 10% are shown) | GI % (OVCAR-3): – (Only GI % higher than 10% are shown) | GI % (A498): – (Only GI % higher than 10% are shown) | GI % (IGROV1): – (Only GI % higher than 10% are shown) | GI % (ACHN): – (Only GI % higher than 10% are shown) | GI % (MDA-MB-468): 17% | GI % (HL-60(TB)): 10% | GI % (MALME-3M): – (Only GI % higher than 10% are shown) | GI % (HS 578T): – (Only GI % higher than 10% are shown) | GI % (RPMI-8226): – (Only GI % higher than 10% are shown) | IC50 (A-549): 12.3 ± 1.05 µM | GI % (LOX IMVI): – (Only GI % higher than 10% are shown) | GI % (CCRF-CEM): – (Only GI % higher than 10% are shown) | GI % (UO-31): – (Only GI % higher than 10% are shown) | GI % (HCT-15): – (Only GI % higher than 10% are shown) | GI % (T-47D): – (Only GI % higher than 10% are shown) | GI % (MDA-MB-435): – (Only GI % higher than 10% are shown) | GI % (M14): – (Only GI % higher than 10% are shown) | GI % (A549/ATCC): 13% | GI % (NCI-H522): – (Only GI % higher than 10% are shown) | GI % (PC-3): – (Only GI % higher than 10% are shown)

CC(C)n1cc(C=NN=C2C(=O)Nc3ccccc32)c2ccccc21 [Compound 9]
GI % (SR): 11% | GI % (KM12): – (Only GI % higher than 10% are shown) | GI % (TK-10): – (Only GI % higher than 10% are shown) | GI % (SK-MEL-2): – (Only GI % higher than 10% are shown) | GI % (OVCAR-5): – (Only GI % higher than 10% are shown) | GI % (RXF 393): – (Only GI % higher than 10% are shown) | GI % (BT-549): – (Only GI % higher than 10% are shown) | GI % (U251): – (Only GI % higher than 10% are shown) | GI % (UACC-257): – (Only GI % higher than 10% are shown) | GI % (NCI-H322M): – (Only GI % higher than 10% are shown) | GI % (HOP-92): 14% | GI % (SNB-19): – (Only GI % higher than 10% are shown) | GI % (MCF7): 10% | GI % (DU-145): – (Only GI % higher than 10% are shown) | GI % (SF-295): – (Only GI % higher than 10% are shown) | GI % (NCI-H226): 16% | GI % (HCC-2998): – (Only GI % higher than 10% are shown) | GI % (SK-MEL-5): – (Only GI % higher than 10% are shown) | GI % (OVCAR-8): – (Only GI % higher than 10% are shown) | GI % (SF-268): – (Only GI % higher than 10% are shown) | GI % (SF-539): – (Only GI % higher than 10% are shown) | GI % (SK-OV-3): – (Only GI % higher than 10% are shown) | GI % (UACC-62): – (Only GI % higher than 10% are shown) | GI % (MDA-MB-231/ATCC): 11% | GI % (SNB-75): 33% | GI % (OVCAR-3): – (Only GI % higher than 10% are shown) | GI % (A498): – (Only GI % higher than 10% are shown) | GI % (IGROV1): – (Only GI % higher than 10% are shown) | GI % (ACHN): – (Only GI % higher than 10% are shown) | GI % (MDA-MB-468): – (Only GI % higher than 10% are shown) | GI % (HL-60(TB)): 18% | GI % (MALME-3M): – (Only GI % higher than 10% are shown) | GI % (HS 578T): – (Only GI % higher than 10% are shown) | GI % (RPMI-8226): – (Only GI % higher than 10% are shown) | IC50 (A-549): 31.7 ± 2.27 µM | GI % (LOX IMVI): – (Only GI % higher than 10% are shown) | GI % (CCRF-CEM): – (Only GI % higher than 10% are shown) | GI % (UO-31): 14% | GI % (HCT-15): – (Only GI % higher than 10% are shown) | GI % (T-47D): 13% | GI % (MDA-MB-435): – (Only GI % higher than 10% are shown) | GI % (M14): – (Only GI % higher than 10% are shown) | GI % (A549/ATCC): – (Only GI % higher than 10% are shown) | GI % (NCI-H522): 10% | GI % (PC-3): – (Only GI % higher than 10% are shown)
